Assay results published in US10322092B2, “Substance-containing vesicle, and production method therefor” (JAPAN SCIENCE AND TECHNOLOGY AGENCY, priority 2013, dated 2019).

Assays:
[1] = tested on: mouse colon cancer cell line C26; experiment: Tumor treatment effect in C26-transplanted BALB/c mice; assay type: in vivo; conditions: for antitumor effect (tumor volume): i.v., days 3, 7, 10, 14
Experimental: Mouse colon cancer cell line C26-transplanted BALB/c mice (6-week-old) were divided into 8 groups of 5 each (groups 1 to 8), and each group was intravenously administered 200 μL each of CD-enclosing crosslinked vesicles (0.5 U/mL) prepared by the procedure described above, 5-FC, 5-FU or PBS, at the timing shown in Table 9 below. The 5-FC and 5-FU were prepared for 10 mg/kg (body weight) or 80 mg/kg (body weight), based on the mouse body weight. […] The tumor volume was measured by measuring the long diameter and short diameter of the tumor using a caliper, and the calculation was performed by the following formula. V=(a^2×b)/2 V: Tumor volume, a: long diameter, b: short diameter

[2] = Viscosity of FITC-Dex solutions (rotating rheometer); assay type: physicochemical
Experimental: The viscosity was measured using a rotating rheometer (Physica MCR302, product of Anton Paar).

A549 cells = experiment: Cytotoxic effect (Cell Counting Kit-8); assay type: cell-based, human; conditions: 48 and 72 hours, gemcitabine concentration 0.5 μg/mL or matched carrier amount
Experimental: Specifically, the GEM-adsorbed sulfonated MSN-encapsulating vesicles obtained by the procedure described above (sample No. 1), the sulfonated MSN-encapsulating vesicles used as material for the foregoing (Example II-3A) (sample No. 2) and the vacant vesicles used as material for the foregoing (Example II-1) (sample No. 5) were each labeled with Cy3 (labeling 25% of the number of anionic polymers), and then A549 cells were added to each well of a plate having a density of 2.2×10^3 cells/well in RPMI-1640 medium, prior to culturing at 37° C. The amount of GEM-adsorbed sulfonated MSN-encapsulating vesicles (sample No. 1) added was an amount for a gemcitabine concentration of 0.5 μg/mL in the medium, the amounts of sulfonated MSN-encapsulating vesicles (sample No. 2) and vacant vesicles (sample No. 5) added were adjusted to be the same as the amount of GEM-adsorbed sulfonated MSN-encapsulating vesicles (sample No. 1) in terms of MSN-encapsulating vesicles. […]
Also, the cytotoxic effects of each of the samples (sample Nos. 1 to 6) at 48 hours and 72 hours after the start of culturing were evaluated by the following procedure. Specifically, using a Cell Counting Kit-8 (product of Dojindo) according to the manufacturer's instructions, reagent was added to each well and culturing was conducted for 1 hour, after which the viable cell count was measured. […]

C26 cells = experiment: Cytotoxic effect (Cell Counting Kit-8); assay type: cell-based, murine; conditions: 48 and 72 hours, gemcitabine concentration 0.1 μg/mL or matched carrier amount
Experimental: Also, the cytotoxic effects of each of the samples (sample Nos. 1 to 6) at 48 hours and 72 hours after the start of culturing were evaluated by the following procedure. Specifically, using a Cell Counting Kit-8 (product of Dojindo) according to the manufacturer's instructions, reagent was added to each well and culturing was conducted for 1 hour, after which the viable cell count was measured. The results after 48 hours of culturing are shown in FIG. 34(a), and the results after 72 hours of culturing are shown in FIG. 34(b).
In addition, using C26 cells (a murine colon adenocarcinoma cell line) instead of A549 cells, the cell uptake property and cytotoxic effect were evaluated by the same procedure described above, except for the points mentioned below. […]

[3] = tested on: human pulmonary carcinoma cell line A549; experiment: Tumor treatment effect in A549-transplanted BALB/c nude mice; assay type: in vivo, mouse; conditions: 200 μL i.v.; gemcitabine 5 mg/kg or matched carrier amount; 28 days; vs PBS group
Experimental: Human pulmonary carcinoma cell line A549-transplanted BALB/c nude mice (7-week-old, for each sample) were divided into 7 groups of 5 each, among which 6 of the groups were intravenously administered samples 1 to 6 (Groups 1 to 6), respectively. The dose of each sample was 200 μL, and the concentration of each sample of the GEM-adsorbed sulfonated MSN-encapsulating vesicles (sample No. 1), the GEM-adsorbed sulfonated MSN (sample No. 3) and the gemcitabine alone (sample No. 6) was adjusted for a gemcitabine concentration of 5 mg/kg of mouse body weight, while the amounts of sulfonated MSN-encapsulating vesicles (sample No. 2) and vacant vesicles (sample No. 5) added were adjusted to be the same as the amount of GEM-adsorbed sulfonated MSN-encapsulating vesicles (sample No. 1) in terms of MSN-encapsulating vesicles, and the amount of sulfonated MSN (sample No. 4) added was adjusted to be the same as the amount of GEM-adsorbed sulfonated MSN (sample No. 3) in terms of MSN. To the remaining group there was administered 200 μL of PBS (Group 7). The tumor volumes were measured for 28 days after administration. Tumor volume was measured by measuring the long diameter and short diameter of the tumor using a caliper, and calculation was performed by the following formula. V=(a^2×b)/2 V: Tumor volume, a: long diameter, b: short diameter

[4] = dose of 10 mg/kg (5-FC or 5-FU)
[5] = dose of 80 mg/kg (5-FC or 5-FU)

Row | viscosity ([2]; concentration 4 mg/mL) | viscosity ([2]; concentration 10 mg/mL) | Compound | antitumor effect (tumor volume) [1, 4] | antitumor effect (tumor volume) [1, 5] | also measured
1 | 0.0513 Pa·s | 0.1377 Pa·s | fluorescein isothiocyanate-dextran [FITC-Dex 40000] |  |  | viscosity ([2]; concentration 50 mg/mL): 0.5481 Pa·s
2 | 0.0504 Pa·s | 0.1271 Pa·s | fluorescein isothiocyanate-dextran [FITC-Dex 10000] |  |  | 

The remaining lines, values behind:

Row | Compound | viscosity ([2]; concentration 4 mg/mL) | viscosity ([2]; concentration 10 mg/mL) | antitumor effect (tumor volume) [1, 4] | antitumor effect (tumor volume) [1, 5] | also measured
3 | Nc1nc(=O)[nH]cc1F [Example 5-FC, 5-fluorocytosine] |  |  | no significant antitumor effect or toxicity | no significant antitumor effect or toxicity | 
4 | O=c1[nH]cc(F)c(=O)[nH]1 [Example 5-FU, 5-fluorouracil] |  |  | very weak antitumor effect | antitumor effect that shrunk the tumor | individuals died by the 28th day after administration ([1]; dose of 10 mg/kg, 5 mice per group): 3; survival ([1]; dose of 80 mg/kg, 5 mice per group, up to 28 days): all of the individuals died by the 17th day
5 | Nc1ccn([C@@H]2O[C@H](CO)[C@@H](O)C2(F)F)c(=O)n1 [gemcitabine alone, Gemcitabine] |  |  |  |  | cytotoxic effect (viable cell count) (A549 cells): powerful cytotoxic effect; cytotoxic effect (viable cell count) (C26 cells): powerful cytotoxic effect; antitumor effect (tumor volume) [3]: no significant antitumor effect was seen
6 | fluorescein isothiocyanate-dextran [FITC-Dex 4000] |  | 0.0097 Pa·s |  |  | 
